Data: ChEMBL document CHEMBL1156161, “Assessing the trypanocidal potential of natural and semi-synthetic diketopiperazines from two deep water marine-derived fungi” (Bioorg Med Chem, 2010)
≈ marks a conversion by molar mass, not a printed value.

How the values were obtained:
[1] = system: Trypanosoma brucei brucei; assay: Antitrypanosomal activity against Trypanosoma brucei brucei 427-221a after 40 hrs by bioluminescence assay; assay type: functional, organism-based; conditions: for IC50 / EC50: Trypanosoma brucei, 427-221a, 40 h
[2] = target: Rhodesain (Trypanosoma brucei rhodesiense, UniProt Q95PM0); assay: Inhibition of […] after 5 mins by spectrofluorimetry
[3] = system: Jurkat; assay: Cytotoxicity against human Jurkat cells after 40 hrs bioluminescence assay; assay type: cell-based
[4] = Inhibition of Trypanosoma brucei brucei recombinant cathepsin B assessed after 5 mins by spectrofluorimetry
[5] = Selectivity index, ratio of IC50 for human Jurkat cells to IC50 for Trypanosoma brucei brucei; assay type: toxicity, cell-based; conditions: for Ratio IC50: jurkat; for selectivity ratio: Jurkat cells, read-out: Ratio IC50
[6] = Selectivity index, ratio of EC50 for HEK293 cells to EC50 for Trypanosoma brucei brucei; assay type: toxicity, cell-based; conditions: human, read-out: Ratio EC50
[7] = system: HEK293; assay: Cytotoxicity against HEK293 cells; assay type: cell-based; conditions: Homo sapiens
[8] = system: Trypanosoma brucei rhodesiense; assay: Antitrypanosomal activity against Trypanosoma brucei rhodesiense after 40 hrs by bioluminescence assay; assay type: functional
[9] = system: HeLa; assay: Cytotoxicity against human HeLa cells; assay type: functional, cell-based
[10] = Inhibition of PAF
[11] = system: Macrophage; assay: Immunomodulatory activity in macrophage assessed as inhibition of phagocytosis; assay type: functional; conditions: read-out: ED50 (the source's name)
[12] = system: HUVEC; assay: Cytotoxicity against HUVEC; assay type: cell-based; conditions: Homo sapiens
[13] = Toxicity in ip dosed ddY mouse; assay type: organism-based; conditions: in vivo
[14] = target: Thioredoxin reductase 1, cytoplasmic (Homo sapiens, UniProt Q16881); assay: Inhibition of thioredoxin reductase 1
[15] = Inhibition of Su(var)3-9
[16] = system: A549; assay: Cytotoxicity against human A549 cells; assay type: functional, cell-based
[17] = Immunosuppression of mouse spleen lymphocytes; assay type: functional, tissue-based; conditions: lymphocyte
[18] = target: Mycothiol S-conjugate amidase (Mycobacterium tuberculosis, UniProt P9WJN1); assay: Inhibition of Mycobacterium tuberculosis mycothiol-S-conjugate amidase
[19] = Inhibition of tubulin polymerization assessed as blockade of microtubule assembly at 250 uM; design: scale not given: the % may be the effect or the level left
[20] = Cytotoxicity against chinook salmon CHSE-214 cells; assay type: cell-based; conditions: Oncorhynchus tshawytscha
[21] = Cytotoxicity against rainbow trout RTG2 cells; assay type: cell-based; conditions: Oncorhynchus mykiss
[22] = target: Acetolactate synthase catalytic subunit, mitochondrial (Saccharomyces cerevisiae S288c, UniProt P07342); assay: Inhibition of Saccharomyces cerevisiae acetolactate synthase
[23] = system: Macrophomina phaseolina; assay: Antimicrobial activity against Rhizoctonia bataticola; assay type: functional; conditions: read-out: ED50 (the source's name)
[24] = Cytotoxicity against rainbow trout RTS11 cells; assay type: cell-based; conditions: Oncorhynchus mykiss
[25] = system: Pythium aphanidermatum; assay: Antimicrobial activity against Pythium aphanidermatum; assay type: functional; conditions: read-out: ED50 (the source's name)
[26] = system: Globisporangium debaryanum; assay: Antimicrobial activity against Pythium debaryanum; assay type: functional; conditions: read-out: ED50 (the source's name)
[27] = system: Athelia rolfsii; assay: Antimicrobial activity against Sclerotium rolfsii; assay type: functional; conditions: Agroathelia rolfsii; read-out: ED50 (the source's name)
[28] = system: Macrophomina phaseolina; assay: Antimicrobial activity against Macrophomina phaseolina; assay type: functional; conditions: read-out: ED50 (the source's name)
[29] = Inhibition of NADPH oxidase
[30] = system: Tetrahymena pyriformis; assay: Antiprotozoal activity against Tetrahymena pyriformis; assay type: functional, organism-based
[31] = species on record: Homo sapiens; assay: Induction of apoptosis in human HSC assessed as required active concentration; assay type: functional
[32] = system: Plasmodium falciparum; assay: Antiparasitic activity against chloroquine-resistant Plasmodium falciparum K1; assay type: functional, organism-based
[33] = system: Rhizoctonia solani; assay: Antimicrobial activity against Rhizoctonia solani; assay type: functional; conditions: read-out: ED50 (the source's name)
[34] = system: jurkat; assay: Activation of NF-kappaB in human jurkat cells assessed as active concentration required; assay type: cell-based
[35] = Ciliostatic activity against human respiratory epithelium assessed as required active concentration; assay type: functional
[36] = Inhibition of chymotrypsin-like activity of 20S proteasome activity
[37] = Selectivity index, ratio of IC50 for rat L6 cells to IC50 for Trypanosoma brucei brucei
[38] = system: MDA-MB-468; assay: Cytotoxicity against human MDA-MB-468 cells; assay type: functional, cell-based
[39] = system: MCF7; assay: Cytotoxicity against human MCF7 cells; assay type: functional, cell-based
[40] = Induction of mutagenesis in microsomes assessed as drug level required by Ames assay; design: species or system Microsome
[41] = Cell cycle arrest in temperature sensitive mouse FT210 cells assessed as accumulation at M phase; assay type: functional, cell-based
[42] = Toxicity in ip dosed mouse; assay type: organism-based; conditions: in vivo
[43] = system: Mus musculus; assay: Neurotoxicity in ip dosed Swiss mouse assessed as drug level required for induction of tremor; assay type: toxicity, organism-based; conditions: in vivo
[44] = Induction of mutagenesis in Salmonella Typhimurium assessed as drug level required by Ames assay; assay type: toxicity; conditions: salmonella enterica subsp. enterica serovar typhimurium
[45] = system: Trypanosoma brucei brucei; assay: Antitrypanosomal activity against Trypanosoma brucei brucei at 1.25 ug/ml after 40 hrs by bioluminescence assay relative to control; assay type: functional

Chain of Rhodesain (Q95PM0 whole entry): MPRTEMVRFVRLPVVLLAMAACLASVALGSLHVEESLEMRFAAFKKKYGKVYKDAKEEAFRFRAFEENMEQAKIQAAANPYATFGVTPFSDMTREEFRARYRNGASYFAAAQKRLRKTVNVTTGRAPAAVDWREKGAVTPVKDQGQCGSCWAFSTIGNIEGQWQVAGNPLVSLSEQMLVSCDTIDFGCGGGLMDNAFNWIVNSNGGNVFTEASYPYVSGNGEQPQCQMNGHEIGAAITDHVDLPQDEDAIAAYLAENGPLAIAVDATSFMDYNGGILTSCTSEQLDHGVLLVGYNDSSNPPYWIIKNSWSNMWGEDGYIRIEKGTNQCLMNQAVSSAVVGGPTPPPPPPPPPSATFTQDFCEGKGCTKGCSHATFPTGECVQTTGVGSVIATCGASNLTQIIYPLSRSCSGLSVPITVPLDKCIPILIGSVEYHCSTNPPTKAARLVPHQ
Chain of Mycothiol S-conjugate amidase (P9WJN1 whole entry): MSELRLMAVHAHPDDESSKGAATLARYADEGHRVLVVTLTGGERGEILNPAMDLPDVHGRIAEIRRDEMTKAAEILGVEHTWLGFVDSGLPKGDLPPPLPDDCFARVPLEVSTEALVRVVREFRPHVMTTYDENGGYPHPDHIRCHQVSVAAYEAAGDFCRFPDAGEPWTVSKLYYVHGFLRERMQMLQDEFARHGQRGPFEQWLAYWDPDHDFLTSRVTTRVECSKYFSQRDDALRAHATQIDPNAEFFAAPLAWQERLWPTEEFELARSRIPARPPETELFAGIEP
Chain of Thioredoxin reductase 1, cytoplasmic (Q16881 whole entry): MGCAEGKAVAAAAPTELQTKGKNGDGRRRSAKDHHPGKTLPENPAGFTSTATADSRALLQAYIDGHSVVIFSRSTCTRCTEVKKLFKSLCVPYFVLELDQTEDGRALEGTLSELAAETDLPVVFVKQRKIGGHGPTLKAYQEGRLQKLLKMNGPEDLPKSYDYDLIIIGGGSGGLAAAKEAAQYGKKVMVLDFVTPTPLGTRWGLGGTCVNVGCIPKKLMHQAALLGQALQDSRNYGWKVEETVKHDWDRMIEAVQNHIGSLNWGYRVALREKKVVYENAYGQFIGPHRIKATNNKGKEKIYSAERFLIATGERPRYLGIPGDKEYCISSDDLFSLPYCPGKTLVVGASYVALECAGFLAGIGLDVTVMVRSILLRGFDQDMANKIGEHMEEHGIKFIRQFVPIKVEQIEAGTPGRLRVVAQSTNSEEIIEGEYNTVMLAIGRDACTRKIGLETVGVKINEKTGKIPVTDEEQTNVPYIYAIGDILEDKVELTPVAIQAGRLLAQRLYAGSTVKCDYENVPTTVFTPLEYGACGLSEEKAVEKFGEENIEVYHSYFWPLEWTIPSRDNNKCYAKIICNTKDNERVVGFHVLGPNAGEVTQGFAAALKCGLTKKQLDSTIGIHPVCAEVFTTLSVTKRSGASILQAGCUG
Chain of Acetolactate synthase catalytic subunit, mitochondrial (P07342 whole entry): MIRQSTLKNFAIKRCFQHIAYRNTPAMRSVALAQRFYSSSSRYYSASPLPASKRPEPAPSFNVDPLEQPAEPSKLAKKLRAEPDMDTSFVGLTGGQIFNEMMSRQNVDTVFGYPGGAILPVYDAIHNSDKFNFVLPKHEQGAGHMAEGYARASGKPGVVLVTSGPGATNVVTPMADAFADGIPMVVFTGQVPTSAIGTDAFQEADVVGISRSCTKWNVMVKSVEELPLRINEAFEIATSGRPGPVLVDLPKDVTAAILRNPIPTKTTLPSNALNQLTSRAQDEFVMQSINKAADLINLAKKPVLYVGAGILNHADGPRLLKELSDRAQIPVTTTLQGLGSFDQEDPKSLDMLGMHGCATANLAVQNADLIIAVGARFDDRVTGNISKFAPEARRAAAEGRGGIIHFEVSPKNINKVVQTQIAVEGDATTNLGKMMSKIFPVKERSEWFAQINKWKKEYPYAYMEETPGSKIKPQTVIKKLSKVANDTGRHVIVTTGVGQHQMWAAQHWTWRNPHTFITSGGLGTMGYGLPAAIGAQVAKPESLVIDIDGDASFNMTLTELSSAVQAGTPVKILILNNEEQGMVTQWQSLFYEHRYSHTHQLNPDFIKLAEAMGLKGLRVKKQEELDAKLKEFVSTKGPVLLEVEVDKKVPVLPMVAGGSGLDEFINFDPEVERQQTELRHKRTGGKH

CS[C@]1(COC(C)=O)C(=O)N2[C@H]3C(=CC=C[C@@H]3O)C[C@@]2(SC)C(=O)N1C
IC50 [1]: > 50 µM

CS[C@]1(CO)C(=O)N2[C@H]3C(=CC=C[C@@H]3OC(C)=O)C[C@@]2(SC)C(=O)N1C
IC50 [2]: 12.8 µM | IC50 [3]: 125 µM | IC50 [1]: 6.5 µM | IC50 [4]: > 50 µM | Ratio IC50 [5]: 19.2 ratio

N#Cc1nc(NCc2ccc(Cl)c(Cl)c2)c2ncn(CCCO)c2n1
selectivity ratio [6]: 227 | EC50 [7]: 25 µM | EC50 [1]: 0.11 µM

CS[C@]1(C)NC(=O)[C@](Cc2c[nH]c3ccccc23)(SC)NC1=O [3,6 BISMETHYL(THIOCYCLO)ALANYLTRYPTOPHYL]
IC50 [1]: > 50 µM

C/C(=C\Cc1c(O)c(Cl)c(C)c(C=O)c1O)CC/C=C(\C)[C@@H]1CC(=O)C(C)(C)O1 [ASCOFURANONE]
IC100 [1]: 0.03 µM

C/C=C(\C)[C@@H]1C=C[C@@H]2C[C@H](C)C[C@H](C)C2[C@@H]1C(=O)C1=CC(C)(OCCCC)NC1=O (stereo partly specified) [ASCOSALIPYRROLIDINONE A]
MIC [8]: 30 µg/mL (≈ 72.5 µM)

CS[C@]1(CO)C(=O)N2[C@H]3C(=CC=C[C@@H]3O)C[C@@]2(SC)C(=O)N1C [BIS(DETHIO)BIS(METHYLTHIO)GLIOTOXIN]
IC50 [9]: > 2.81 µM | IC50 [10]: 8.4 µM | EC50 [11]: > 10 µM | IC50 [12]: 1.12 µM | IC50 [2]: > 50 µM | IC50 [3]: 140 µM | IC50 [1]: 40.2 µM | IC50 [4]: > 50 µM | LD50 [13]: > 500 mg/kg | selectivity ratio [5]: 3.5

CN1C(=O)[C@@]23C[C@]4([C@]56C[C@@]78SS[C@@](CO)(C(=O)N7[C@H]5Nc5ccccc56)N(C)C8=O)c5ccccc5N[C@@H]4N2C(=O)[C@]1(CO)SS3 [CHAETOCIN]
IC50 [14]: 4.6 µM | IC50 [15]: 0.6 µM | IC50 [2]: > 50 µM | IC50 [3]: < 0.6 µM | IC50 [1]: 0.002 µM | IC50 [4]: > 50 µM | IC50 [16]: < 0.025 µM

CS[C@]1(Cc2c[nH]c3ccccc23)NC(=O)[C@](CO)(SC)N(C)C1=O [CHETOSEMINUDIN B]
IC50 [17]: 24 µM | IC50 [18]: 70 µM | IC50 [2]: > 50 µM | IC50 [3]: 94.9 µM | IC50 [1]: 5.9 µM | IC50 [4]: > 50 µM | Ratio IC50 [5]: 16.1 ratio

COc1ccc2c3c([nH]c2c1)[C@H](C=C(C)C)N1C[C@@H]2CCCN2C[C@@]1(O)[C@H]3O [CYCLOTRYPROSTATIN A]
IC50 [1]: > 50 µM | Activity [19]: 66.4%

CS[C@]1(CO)C(=O)N2c3c(O)cccc3C[C@@]2(SC)C(=O)N1C [DEHYDROBIS(METHYLTHIO)GLIOTOXIN]
IC50 [10]: 16.9 µM | IC50 [2]: 19.5 µM | IC50 [3]: 141 µM | IC50 [1]: 8.5 µM | IC50 [4]: > 50 µM | Ratio IC50 [5]: 16.6 ratio

CS[C@]1(COC(C)=O)C(=O)N2[C@H]3C(=CC=C[C@@H]3OC(C)=O)C[C@@]2(SC)C(=O)N1C [DIACETYLBIS(METHYLTHIO)GLIOTOXIN]
IC50 [2]: > 50 µM | IC50 [3]: 56 µM | IC50 [1]: 35.5 µM | IC50 [4]: > 50 µM | Ratio IC50 [5]: 1.6 ratio

CN1C(=O)[C@]23CC4=CC=C[C@H](O)[C@H]4N2C(=O)[C@@]1(CO)SS3 [GLIOTOXIN]
EC50 [20]: 1.65 µM | EC50 [21]: 2 µM | IC50 [9]: 2.45 µM | IC50 [22]: 0.2 µM | IC50 [10]: 93 µM | EC50 [23]: 0.9 µM | EC50 [24]: 1.35 µM | EC50 [25]: 36.9 µM | EC50 [11]: 0.104 µM | EC50 [26]: 90.1 µM | EC50 [27]: 6.47 µM | IC50 [18]: 50 µM | EC50 [28]: 5.4 µM | IC50 [29]: 9 µM | EC50 [30]: 0.38 µM | Activity [31]: 0.3 µM | IC50 [12]: 0.123 µM | IC50 [2]: > 50 µM | IC50 [3]: < 1 µM | IC50 [32]: 3.6 µM | EC50 [33]: 9.75 µM | IC50 [1]: 0.01 µM | IC50 [4]: 0.5 µM | IC50 [16]: 0.003 µM | Activity [34]: 300 nM | Activity [35]: 30.7 µM | LD50 [13]: 17.9 mg/kg | IC50 [36]: 10 µM

Nc1nc(N)nc(Nc2ccc([As]3SCC(CO)S3)cc2)n1 (stereo unspecified) [MELARSOPROL]
IC50 [1]: 0.004 µM | selectivity ratio [37]: 1940

COc1ccc2c(c1)N(C)C(=O)[C@@]21C=C2C(=O)N3CCC[C@H]3C(=O)N2[C@H]1C=C(C)C [N-METHYL-6-METHOXYSPIROTRYPROSTATIN B]
IC50 [1]: > 50 µM

COc1ccc2c(c1)N(C)C(=O)[C@@]21C[C@H]2C(=O)N3CCC[C@H]3C(=O)N2[C@H]1C=C(C)C [N-METHYLSPIROTRYPROSTATIN A]
IC50 [1]: > 50 µM

N=C(N)c1ccc(OCCCCCOc2ccc(C(=N)N)cc2)cc1 [PENTAMIDINE]
IC50 [1]: 0.007 µM

COc1ccc2c(c1)NC(=O)[C@@]21C[C@H]2C(=O)N3CCC[C@H]3C(=O)N2[C@H]1C=C(C)C [SPIROTRYPROSTATIN A]
IC50 [38]: 110 µM | IC50 [39]: > 300 µM | IC50 [1]: > 50 µM

COc1ccc2c(c1)NC(=O)[C@@]21C=C2C(=O)N3CCC[C@H]3C(=O)N2[C@H]1C=C(C)C [SPIROTRYPROSTATIN B]
IC50 [2]: > 50 µM | IC50 [3]: 21.1 µM | IC50 [1]: 5.7 µM | IC50 [4]: > 50 µM | Ratio IC50 [5]: 3.7 ratio

Cc1ccc(/C(=N\NC(N)=S)c2cc(C(F)(F)F)cc(C(F)(F)F)c2)cc1 [THIOSEMICARBAZONE STANDARD]
selectivity ratio [6]: 19 | EC50 [7]: 25 µM | IC50 [2]: 0.044 µM | EC50 [1]: 1.3 µM | IC50 [4]: 15 µM

COc1ccc2c3c4n(c2c1)[C@H](C=C(C)C)OOC(C)(C)C[C@@H]4N1C(=O)[C@@H]2CCCN2C(=O)[C@]1(O)[C@H]3O [VERRUCULOGEN]
Activity [40]: 1 µM | MIC [41]: 12.2 µM (≈ 6.24 µg/mL) | LD50 [42]: 2.4 mg/kg | Activity [43]: 0.78 mg/kg | Activity [44]: 1 µM | IC50 [2]: 45 µM | IC50 [3]: 97 µM | IC50 [1]: 12.9 µM | IC50 [4]: > 50 µM | selectivity ratio [5]: 7.5

CN1C(=O)[C@]23SS[C@@]1(C)C(=O)N2[C@H]1Nc2ccccc2[C@@]1([C@@]12c4ccccc4N[C@@H]1N1C(=O)[C@]4(CO)SS[C@]1(C(=O)N4C)[C@H]2O)[C@@H]3O [VERTICILLIN B]
EC50 ([9]; read-out: ED50 (the source's name)): 0.28 µM | Activity [45]: 109% | IC50 [2]: > 50 µM | IC50 [3]: < 0.6 µM | IC50 [1]: 0.007 µM | IC50 [4]: > 50 µM
